Experimental data: PMC9919513, “A Practical Approach to Bicyclic Carbamoyl Pyridones with Application to the Synthesis of HIV-1 Integrase Strand Transfer Inhibitors” (Molecules, 2023)

Experiment: in vitro
Assay type: cell-based
Conditions: human, HOS cells, 48 h; read-out: CC50, cytotoxic concentration resulting in 50% reduction in the level of ATP
Description: Human embryonic kidney cell culture cell line 293 was acquired from the American Type Culture Collection (ATCC). The human osteosarcoma cell line, HOS, was obtained from Dr. Richard Schwartz (Michigan State University, East Lansing, MI, USA) and grown in Dulbecco’s modified Eagle’s medium (Invitrogen, Carlsbad, CA, USA) supplemented with 5% (v/v) fetal bovine serum, 5% newborn calf serum, and penicillin (50 units/mL) plus streptomycin (50 µg/mL; Quality Biological, Gaithersburg, MD, USA). The transfection vector, pNLNgoMIVR-ΔLUC was made from pNLNgoMIVR-ΔEnv.HSA by removing the HSA reporter gene and replacing it with a luciferase reporter gene between the NotI and XhoI restriction sites. To produce the new IN mutant S230N used in this study, the IN open reading frame was removed from pNLNgoMIVR-ΔENV.LUC by digestion with KpnI and SalI, and the resulting fragment was inserted between the KpnI and SalI sites of pBluescript KS+. Using that construct as the wild-type template, we prepared the following HIV-1 IN mutant S230N using the QuikChange II XL site-directed mutagenesis kit (Agilent Technologies, Santa Clara, CA, USA) protocol. The following sense oligonucleotides were used with matching cognate antisense oligonucleotides (not shown) (Integrated DNA Technologies, Coralville, IA, USA) in the mutagenesis: S230N 5′-[…]-3′. The DNA sequence of the IN mutant S230N construct was verified independently by DNA sequence determination. The mutated IN coding sequences from pBluescript KS+ were then subcloned into pNLNgoMIVR-ΔEnv.LUC (between the KpnI and SalI sites) to produce mutant HIV-1 constructs, which were also checked by DNA sequencing. […]. On the day prior to transfection, 293 cells were plated on 100 mm diameter dishes at a density of 1.5 × 10^6 cells per plate. Next, 293 cells were transfected with 16 µg of pNLNgoMIVR^-ΔLUC and 4 µg of pHCMV-g (obtained from Dr. Jane Burns, University of California, San Diego) using the calcium phosphate method. At approximately 6 h after the calcium phosphate precipitate was added, 293 cells were washed twice with phosphate-buffered saline (PBS) and incubated with fresh media for 48 h. The virus-containing supernatants were then harvested, clarified by low-speed centrifugation, filtrated, and diluted for preparation in antiviral infection assays. On the day prior to the screen, HOS cells were seeded in a 96-well luminescence cell culture plate at a density of 4000 cells in 100 µL per well. On the day of the screen for cellular cytotoxicity determination, cells were treated with compounds from a concentration range of 250 µM to 0.05 µM and then incubated at 37 °C for 48 h. On the day of the screen for antiviral activity infection assays, cells were treated with compounds from a concentration range of 5 µM to 0.0001 µM using 11 serial dilutions and then incubated at 37 °C for 3 h. After compound incorporation and activation in the cell, 100 µL of virus-stock (WT or mutant) diluted to achieve a luciferase signal between 0.2 and 1.5 Relative Luciferase Units (RLUs) was added to each well and further incubated at 37 °C for 48 h. Cellular cytotoxicity was measured by using the ATP Lite Luminescence detection system and monitored by adding 50 µL of cell lysis buffer from the Luminescence ATP detection assay to each well followed by mixing at 700 rpm at room temperature for 5 min using a compact thermomixer. After addition of 50 µL of reconstituted Luminescence ATP detection assay reagent to all wells except for the negative control/background wells, the plates were mixed at 700 rpm at room temperature for 5 min using a compact thermomixer, incubated at room temperature for 20 min to allow time for signal development, and finally, cytotoxicity was determined using the microplate reader. Infectivity was measured by using the Steady-lite plus luminescence reporter gene assay system (PerkinElmer, Waltham, MA, USA). […]

Row | Compound | CC50 [µM]
1 | O=C(NCc1ccc(F)cc1F)c1cn2ccn(CCCCCO)c(=O)c2c(O)c1=O [Compound 6d, N-(2,4-Difluorobenzyl)-9-hydroxy-2-(5-hydroxypentyl)-1,8-dioxo-1,8-dihydro-2H-pyrido [1,2-a]pyrazine-7-carboxamide] | > 250
2 | O=C(NCc1ccc(F)cc1F)c1cn2c(c(O)c1=O)C(=O)N(CCCCCCO)CC2 [Compound 7c, N-(2,4-Difluorobenzyl)-9-hydroxy-2-(6-hydroxyhexyl)-1,8-dioxo-1,3,4,8-tetrahydro-2H-pyrido [1,2-a]pyrazine-7-carboxamide] | > 250
3 | O=C(NCc1ccc(F)cc1F)c1cn2c(c(O)c1=O)C(=O)N(CCCCO)CC2 [Compound 7e, N-(2,4-Difluorobenzyl)-9-hydroxy-2-(4-hydroxybutyl)-1,8-dioxo-1,3,4,8-tetrahydro-2H-pyrido [1,2-a]pyrazine-7-carboxamide] | > 250
4 | O=C(NCc1ccc(F)cc1F)c1cn2ccn(CCCCCCO)c(=O)c2c(O)c1=O [Compound 6c, N-(2,4-Difluorobenzyl)-9-hydroxy-2-(6-hydroxyhexyl)-1,8-dioxo-1,8-dihydro-2H-pyrido [1,2-a]pyrazine-7-carboxamide] | > 250
5 | O=C(NCc1ccc(F)cc1F)c1cn2ccn(CCCCO)c(=O)c2c(O)c1=O [Compound 6e, N-(2,4-Difluorobenzyl)-9-hydroxy-2-(4-hydroxybutyl)-1,8-dioxo-1,8-dihydro-2H-pyrido [1,2-a]pyrazine-7-carboxamide] | > 250
